This note sets out measurements from patent US20070149562A1, “OXOPIPERIDINE DERIVATIVES, PREPARATION AND THERAPEUTIC USE THEREOF” (SANOFI-AVENTIS, priority 2004, published 2007).

pEC50, pIC50: −log10 of the molar value. Where a name gives a salt, the structure may show the parent alone.

Data set [1] concerns the target T1, human MC4 receptor (Homo sapiens, UniProt P32245).
T1 construct: host or cells: CHO-K1
As to the kind of experiment: Affinity assay: displacement of [125I]-[Nle4-D-Phe7]-α-MSH binding to cell membranes (SPA). As to conditions: membranes of CHO-K1 cells expressing human MC4 receptor; radioligand 100 pM; read-out: IC50 with respect to the MC4 receptor. The procedure: This affinity assay is carried out by measuring the binding of [^125I]-[Nle^4-D-Phe^7]-[…]-MSH to cell membranes. The displacement of this radioligand is used to identify inhibitors of the specific binding to recombinant melanocortin receptors.
For this assay, membranes prepared from CHO-K1 cells expressing the human MC4 receptor at high density (Euroscreen) or membranes, that were purchased (Perkin Elmer Life Sciences, Receptor Biology), of HEK-293 cells expressing hMC3 receptors were used. CHO-K1 cells transfected with the hMC4 receptor gene (Euroscreen) are seeded into DMEM/Nutrient Mix F12 culture medium containing 10% foetal calf serum (Biowhittaker), 1% sodium pyruvate, 1% L-glutamine, 1% non-essential amino acids, 0.4 mg/ml geneticin (G418) and 0.5% PenStrep, these products being provided by Gibco/BR1, except the calf serum. At 80% confluency, the cells are scraped off and the cell pellets are frozen at −80° C.
A tube of cells (approximately 70×10^6 cells) is thawed on ice and resuspended in 10 ml of binding buffer [25 mM HEPES, pH 7.0, 1 mM MgCl2, 1.5 mM CaCl2, 100 mM NaCl, 1 mM 1,10-phenanthroline and 1 tablet of Complete™ (protease inhibitor from Roche) in 50 ml of buffer]using a polytron for 20 seconds. The suspension is centrifuged for 20 min at 19 500 rpm at 4° C. The supernatant is discarded and the pellet is resuspended in 5 ml of binding buffer. The amount of proteins present in the sample is assayed using a Bradford test, and the concentration is adjusted to 3 ug/25 ul by dilution in binding buffer.
[^125I]-[Nle^4, D-Phe^7]-[…]-MSH is diluted in binding buffer+0.2% BSA. SPA beads (wheatgerm agglutinin polyvinyltoluene, Amersham Pharmacia Biotech) are hydrated in the binding buffer+0.2% BSA and are then mixed with the cell homogenate so as to obtain 3 μg of cell proteins and 250 ug of beads in 50 ul. […] The nonspecific binding is defined by NDP-DMSH at 10^-7 M. The total binding is measured by the number of counts per minute in the presence of the radioligand alone. […]
(In general: Loss of bound radioactivity is the signal in a displacement assay; it reports binding, not function.)

In data set [2] the target is T1, human MC4 receptor. Nature of the data set: Functional assay of agonist activity: cAMP formation. Format: cell-based. To be noted: CHO-K1 cells expressing human MC4 receptor, 1 hour incubation, read-out: EC50 with respect to the MC4 receptor. How it is done:
(§1) A functional assay is used to differentiate between the agonist activity and the antagonist activity. For this, the formation of cyclic adenosine monophosphate (cAMP) generated by activation of the MC3 receptor or of the MC4 receptor is assayed.
CHO-K1 cells, expressing the human MC4 receptor at a moderate density (Euroscreen), are seeded into DMEM/Nutrient Mix F12 culture medium (Gibco/BR1) containing 10% of foetal calf serum, 0.5% sodium pyruvate, 1% L-glutamine, 1% non-essential amino acids, 200 mg/l hygromycin B and 0.5% PenStrep, these products being provided by Gibco/BR1, except the calf serum (Biowhittaker) and hygromycin B (Sigma).
(§2) The compounds to be tested (diluted in 10% DMSO), in an amount of 10 ul at a concentration of 10 times the final concentration, are added to the plates of cells (final volume=100 ul/well). After incubation for 1 hour (37° C., 5% CO2), the amount of cAMP is assayed using Tropix kits (Appelera) according to the supplier's documentation. The intrinsic activity of the compounds is calculated by comparing the stimulation of cAMP by these compounds to the stimulation induced by 30 nM of NDP MSH (maximum of 100%). The EC50 value for the compounds corresponds to the concentration which produces 50% of the maximum stimulation obtained with this compound.
A general note: Cyclic AMP is a second messenger, typically raised through Gs and lowered through Gi signalling.

The target in data set [3] is T2, human MC3 receptor (Homo sapiens, UniProt P41968).
T2 construct: expressed in transfected cells; host or cells: CHO(dhfr-)
The description is as above. The data set is classed as cell-based. As to conditions: CHO(dhfr-) cells expressing human MC3 receptor, 1 hour incubation, read-out: EC50 with respect to the MC3 receptor. How it is done: as §1
CHO(dhfr-) cells expressing the human MC3 receptor are seeded into MEM Eagle culture medium (Sigma) containing 10% of dialysed calf serum, 1% L-glutamine, 1% sodium pyruvate, 20 mg/500 ml L-proline, 0.3 mg/ml Geneticin and 0.5% PenStrep, these products being provided by Gibco/BR1, except for the dialysed calf serum (Cambrex) and the L-proline (Sigma).
as §2

One may read the melting point as the temperature, or range, at which the solid turns liquid. What is called pIC50 is −log10 of the IC50, conventionally taken in molar units. In general, pEC50 refers to the EC50 on a negative log10 scale, so that one unit is a factor of ten.

T2 sequence (P41968 whole entry): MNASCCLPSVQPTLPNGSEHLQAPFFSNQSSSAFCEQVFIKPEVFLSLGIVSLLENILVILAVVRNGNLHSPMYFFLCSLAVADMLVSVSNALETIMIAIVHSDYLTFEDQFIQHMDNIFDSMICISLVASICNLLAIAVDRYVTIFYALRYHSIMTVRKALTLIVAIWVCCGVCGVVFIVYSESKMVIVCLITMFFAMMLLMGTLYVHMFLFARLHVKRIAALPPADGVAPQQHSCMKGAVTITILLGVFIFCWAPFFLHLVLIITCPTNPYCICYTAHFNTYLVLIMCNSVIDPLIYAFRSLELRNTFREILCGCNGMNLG
T1 sequence (P32245 whole entry): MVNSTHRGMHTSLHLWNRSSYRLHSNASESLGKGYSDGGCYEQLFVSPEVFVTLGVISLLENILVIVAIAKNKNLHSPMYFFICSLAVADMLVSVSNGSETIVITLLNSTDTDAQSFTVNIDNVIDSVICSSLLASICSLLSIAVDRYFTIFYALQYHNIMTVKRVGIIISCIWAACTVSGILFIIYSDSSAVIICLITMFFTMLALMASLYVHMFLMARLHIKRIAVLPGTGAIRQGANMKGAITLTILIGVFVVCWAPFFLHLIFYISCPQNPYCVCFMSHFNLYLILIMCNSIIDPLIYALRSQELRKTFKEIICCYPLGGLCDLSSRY

On to `O=C([C@@H](Cc1ccc(Cl)cc1)NC1CCNCC1)N1CCC(Cn2cncn2)(C2CCCCC2)CC1` (as salt: HCl) [Compound 1, N-{(1R)-1-(4-chlorobenzyl)-2-[4-cyclohexyl-4-(1H-1,2,4-triazol-1-ylmethyl)piperidin-1-yl]-2-oxoethyl}piperidin-4-amine], for which the melting point stood at 255 °C.

Regarding `N[C@H]1CC[C@@H](N[C@H](Cc2ccc(Cl)cc2)C(=O)N2CCC(Cn3cncn3)(C3CCCCC3)CC2)CC1` (as salt: HCl) [Compound 12, cis-N-{(1R)-1-(4-chlorobenzyl)-2-[4-cyclohexyl-4-(1H-1,2,4-triazol-1-ylmethyl)piperidin-1-yl]-2-oxoethyl}cyclohexane-1,4-diamine], the melting point was found to be 159 °C.

With `CS(=O)(=O)N1CCC(N[C@H](Cc2ccc(Cl)cc2)C(=O)N2CCC(Cn3cncn3)(C3CCCCC3)CC2)CC1` (as salt: HCl) [Compound 54, N-{(1R)-1-(4-chlorobenzyl)-2-[4-cyclo-hexyl-4-(1H-1,2,4-triazol-1-ylmethyl)piperidin-1-yl]-2-oxoethyl}-1-(methylsulphonyl)piperidin-4-amine], the melting point is over 200 °C.

In turn, `NCC(=O)N[C@H]1CC[C@@H](N[C@H](Cc2ccc(Cl)cc2)C(=O)N2CCC(Cn3cncn3)(C3CCCCC3)CC2)CC1` (as salt: HCl) [Compound 116, N-[cis-4-({(1R)-1-(4-chlorobenzyl)-2-[4-cyclohexyl-4-(1H-1,2,4-triazol-1-ylmethyl)piperidin-1-yl]-2-oxoethyl}amino)cyclohexyl]glycinamide] returned a melting point of 128 °C.

In the case of `O=C([C@@H](Cc1ccc(Cl)cc1)NC1CCNCC1)N1CCC(Cn2cncn2)(C2CCCCC2)CC1` [Compound 1, N-{(1R)-1-(4-chlorobenzyl)-2-[4-cyclohexyl-4-(1H-1,2,4-triazol-1-ylmethyl)piperidin-1-yl]-2-oxoethyl}piperidin-4-amine], the pIC50 in data set [1] was 6.60. Besides, the pEC50 in data set [2] was 7.30; in data set [3], 6.70.

`O=C([C@@H](Cc1ccc(Cl)cc1)NC1CCOCC1)N1CCC(Cn2cncn2)(C2CCCCC2)CC1` [Compound 2, N-{(1R)-1-(4-chlorobenzyl)-2-[4-cyclohexyl-4-(1H-1,2,4-triazol-1-ylmethyl)piperidin-1-yl]-2-oxoethyl}tetrahydro-2H-pyran-4-amine] showed a melting point of 75 °C. Besides, the pIC50 in data set [1] is 6.24. Moreover, the pEC50 in data set [2] was 7.22. Further, the pEC50 in data set [3] is 6.96.

With `N[C@H]1CC[C@@H](N[C@H](Cc2ccc(Cl)cc2)C(=O)N2CCC(Cn3cncn3)(C3CCCCC3)CC2)CC1` [Compound 12, cis-N-{(1R)-1-(4-chlorobenzyl)-2-[4-cyclohexyl-4-(1H-1,2,4-triazol-1-ylmethyl)piperidin-1-yl]-2-oxoethyl}cyclohexane-1,4-diamine], the pIC50 in data set [1] was 6.70. The pEC50 in data set [2] was 7.70; in data set [3] it was 7.00.
